The values below come from patent publication US8299111B2, “Compounds which modulate the CB2 receptor” (Boehringer Ingelheim International GmbH, priority 2006, dated 2012).

For the experiment, the target named is T1, human CB2R (Homo sapiens, UniProt P34972).
T1 construct: host or cells: CHO cells
T1 sequence (P34972 whole entry): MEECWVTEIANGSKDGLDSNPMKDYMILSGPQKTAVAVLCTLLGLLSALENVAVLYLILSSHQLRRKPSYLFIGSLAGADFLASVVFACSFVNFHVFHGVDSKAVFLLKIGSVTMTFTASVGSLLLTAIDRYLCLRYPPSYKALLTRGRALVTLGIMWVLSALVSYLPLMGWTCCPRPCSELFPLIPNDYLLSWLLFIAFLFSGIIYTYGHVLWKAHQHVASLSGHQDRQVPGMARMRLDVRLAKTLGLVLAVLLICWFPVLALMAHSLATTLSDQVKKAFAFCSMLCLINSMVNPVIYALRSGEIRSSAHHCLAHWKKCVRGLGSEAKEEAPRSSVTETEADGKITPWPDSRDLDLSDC
Kind of experiment: CB2R mediated modulation of cAMP synthesis. The experiment is classed as cell-based. The following applies: found through the use of the above described assays (binding and cAMP); CHO cells expressing human CB2R, forskolin-stimulated cAMP. A digest of the protocol: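 EC50 values reflect inhibition of cAMP made in response to 10 uM forskolin (with 1 mM IBMX, 0.25% BSA) over 30 min at 37 °C in human CB2R-expressing CHO cells. The window runs from forskolin alone to 1 uM CP55940; curves fitted with a four-parameter logistic model.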
As to `Cc1ccc(S(=O)(=O)C(C)(C)C(=O)Nc2cc(C(C)(C)C)nn2C)cc1F` [N-(5-tert-Butyl-2-methyl-2H-pyrazol-3-yl)-2-(3-fluoro-4-methyl-benzenesulfonyl)-2-methyl-propionamide], the agonistic activity entry is given as “agonistic activity”.
On to `Cn1nc(C(C)(C)C)cc1NC(=O)C(C)(C)S(=O)(=O)c1cccc(F)c1` [N-(5-tert-Butyl-2-methyl-2H-pyrazol-3-yl)-2-(3-fluoro-benzenesulfonyl)-2-methyl-propionamide], for which the agonistic activity entry is on record as “agonistic activity”.
For `Cn1nc(C(C)(C)C)cc1NC(=O)C(C)(C)S(=O)(=O)c1ccc(Cl)cc1F` [N-(5-tert-Butyl-2-methyl-2H-pyrazol-3-yl)-2-(4-chloro-2-fluoro-benzenesulfonyl)-2-methyl-propionamide], the agonistic activity entry is “agonistic activity”.
Next, `Cn1nc(C(C)(C)C)cc1NC(=O)C(C)(C)S(=O)(=O)c1ccc(Cl)cc1` [N-(5-tert-Butyl-2-methyl-2H-pyrazol-3-yl)-2-(4-chloro-benzenesulfonyl)-2-methyl-propionamide]: “agonistic activity”.
For the compound `Cn1nc(C(C)(C)C)cc1NC(=O)C(C)(C)S(=O)(=O)c1ccc(C#N)cc1F` [N-(5-tert-Butyl-2-methyl-2H-pyrazol-3-yl)-2-(4-cyano-2-fluoro-benzenesulfonyl)-2-methyl-propionamide], the agonistic activity entry was “agonistic activity”.
To `Cn1nc(C(C)(C)C)cc1NC(=O)C(C)(C)S(=O)(=O)c1ccc(C#N)cc1` [N-(5-tert-Butyl-2-methyl-2H-pyrazol-3-yl)-2-(4-cyano-benzenesulfonyl)-2-methyl-propionamide] belongs “agonistic activity”.
Next, `Cn1nc(C(C)(C)C)cc1NC(=O)C(C)(C)S(=O)(=O)c1ccc(F)cc1` [N-(5-tert-Butyl-2-methyl-2H-pyrazol-3-yl)-2-(4-fluoro-benzenesulfonyl)-2-methyl-propionamide]: “agonistic activity”; `COc1ccc(S(=O)(=O)C(C)(C)C(=O)Nc2cc(C(C)(C)C)nn2C)cc1` [N-(5-tert-Butyl-2-methyl-2H-pyrazol-3-yl)-2-(4-methoxy-benzenesulfonyl)-2-methyl-propionamide]: “agonistic activity”.
For `Cn1nc(C(C)(C)C)cc1NC(=O)C(C)(C)S(=O)(=O)c1ccc(Cl)nc1` [N-(5-tert-Butyl-2-methyl-2H-pyrazol-3-yl)-2-(6-chloro-pyridine-3-sulfonyl)-2-methyl-propionamide], the agonistic activity result is given as “agonistic activity”.
Next, `COc1ccc(S(=O)(=O)C(C)(C)C(=O)Nc2cc(C(C)(C)C)nn2C)cn1` [N-(5-tert-Butyl-2-methyl-2H-pyrazol-3-yl)-2-(6-methoxy-pyridine-3-sulfonyl)-2-methyl-propionamide]: “agonistic activity”; `Cn1nc(C(C)(C)C)cc1NC(=O)C(C)(C)S(=O)(=O)c1ccc(C(F)(F)F)nc1` [N-(5-tert-Butyl-2-methyl-2H-pyrazol-3-yl)-2-methyl-2-(6-trifluoromethyl-pyridine-3-sulfonyl)-propionamide]: “agonistic activity”.
As for `Cc1ccc(S(=O)(=O)C(C)(C)C(=O)Nc2cc(C(C)(C)C)nn2C)cc1` [N-(5-tert-Butyl-2-methyl-2H-pyrazol-3-yl)-2-methyl-2-(toluene-4-sulfonyl)-propionamide], the agonistic activity result is given as “agonistic activity”.
Consider `CC(C)C(C(=O)Nc1cc(C(C)(C)C)nn1C)S(=O)(=O)c1ccc(C(F)(F)F)cc1` (centres unmarked) [N-(5-tert-Butyl-2-methyl-2H-pyrazol-3-yl)-3-methyl-2-(4-trifluoromethyl-benzenesulfonyl)-butyramide], for which the agonistic activity entry is listed as “agonistic activity”.
Consider `CC(C)(C)c1cc(NC(=O)C(C)(C)S(=O)(=O)c2ccccc2F)[nH]n1` [N-(5-tert-Butyl-2H-pyrazol-3-yl)-2-(2-fluoro-benzenesulfonyl)-2-methyl-propionamide], for which the agonistic activity entry was “agonistic activity”.
